Tested on: Genes belonging to other category
Assay: DNA chip mRNA expression in yeast, genes belonging to other category (Table 9)
Format: cell-based, Saccharomyces cerevisiae S288C
Summary of the method: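 Untreated cultures served as reference for log-phase S288C yeast given a growth-inhibiting, non-lethal toxicant dose for 2 h at 25° C. in YPD. Gene expression was measured on a whole-genome DNA chip from Cy3/Cy5-labeled cDNA.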

N#Cc1c(Cl)c(Cl)c(Cl)c(C#N)c1Cl [(9), 2,4,5,6-tetrachloro-1,3-benzenedicarbonitrile]
The level of expressed mRNA in the presence of chemical substance/The level of expressed mRNA in the absence of chemical substance (yeast gene YAL055W): 1.0 | The level of expressed mRNA in the presence of chemical substance/The level of expressed mRNA in the absence of chemical substance (yeast gene YAR010C): 1.2 | The level of expressed mRNA in the presence of chemical substance/The level of expressed mRNA in the absence of chemical substance (yeast gene YBL005W-A): 0.8 | The level of expressed mRNA in the presence of chemical substance/The level of expressed mRNA in the absence of chemical substance (yeast gene YBL041W): 2.8 | The level of expressed mRNA in the presence of chemical substance/The level of expressed mRNA in the absence of chemical substance (yeast gene YBL043W): 0.5 | The level of expressed mRNA in the presence of chemical substance/The level of expressed mRNA in the absence of chemical substance (yeast gene YBL078C): 12.3 | The level of expressed mRNA in the presence of chemical substance/The level of expressed mRNA in the absence of chemical substance (yeast gene YBL102W): 2.3 | The level of expressed mRNA in the presence of chemical substance/The level of expressed mRNA in the absence of chemical substance (yeast gene YBR046C): 4.6 | The level of expressed mRNA in the presence of chemical substance/The level of expressed mRNA in the absence of chemical substance (yeast gene YBR139W): 2.3 | The level of expressed mRNA in the presence of chemical substance/The level of expressed mRNA in the absence of chemical substance (yeast gene YBR177C): 2.1 | The level of expressed mRNA in the presence of chemical substance/The level of expressed mRNA in the absence of chemical substance (yeast gene YBR212W): 2.7 | The level of expressed mRNA in the presence of chemical substance/The level of expressed mRNA in the absence of chemical substance (yeast gene YBR214W): 2.2 | The level of expressed mRNA in the presence of chemical substance/The level of expressed mRNA in the absence of chemical substance (yeast gene YCL020W): 0.9 | The level of expressed mRNA in the presence of chemical substance/The level of expressed mRNA in the absence of chemical substance (yeast gene YCL027W): 0.7 | The level of expressed mRNA in the presence of chemical substance/The level of expressed mRNA in the absence of chemical substance (yeast gene YCL033C): 2.3 | The level of expressed mRNA in the presence of chemical substance/The level of expressed mRNA in the absence of chemical substance (yeast gene YCL067C): 1.4 | The level of expressed mRNA in the presence of chemical substance/The level of expressed mRNA in the absence of chemical substance (yeast gene YCR004C): 4.7 | The level of expressed mRNA in the presence of chemical substance/The level of expressed mRNA in the absence of chemical substance (yeast gene YCR062W): 0.7 | The level of expressed mRNA in the presence of chemical substance/The level of expressed mRNA in the absence of chemical substance (yeast gene YCR071C): 0.6 | The level of expressed mRNA in the presence of chemical substance/The level of expressed mRNA in the absence of chemical substance (yeast gene YCR088W): 0.8 | The level of expressed mRNA in the presence of chemical substance/The level of expressed mRNA in the absence of chemical substance (yeast gene YDL007W): 3.8 | The level of expressed mRNA in the presence of chemical substance/The level of expressed mRNA in the absence of chemical substance (yeast gene YDL008W): 2.3 | The level of expressed mRNA in the presence of chemical substance/The level of expressed mRNA in the absence of chemical substance (yeast gene YDL018C): 1.0 | The level of expressed mRNA in the presence of chemical substance/The level of expressed mRNA in the absence of chemical substance (yeast gene YDL065C): 2.4 | The level of expressed mRNA in the presence of chemical substance/The level of expressed mRNA in the absence of chemical substance (yeast gene YDL197C): 2.6 | The level of expressed mRNA in the presence of chemical substance/The level of expressed mRNA in the absence of chemical substance (yeast gene YDL229W): 1.4 | The level of expressed mRNA in the presence of chemical substance/The level of expressed mRNA in the absence of chemical substance (yeast gene YDL230W): 2.6 | The level of expressed mRNA in the presence of chemical substance/The level of expressed mRNA in the absence of chemical substance (yeast gene YDL238C): 1.7 | The level of expressed mRNA in the presence of chemical substance/The level of expressed mRNA in the absence of chemical substance (yeast gene YDR055W): 0.8 | The level of expressed mRNA in the presence of chemical substance/The level of expressed mRNA in the absence of chemical substance (yeast gene YDR084C): 0.6 | The level of expressed mRNA in the presence of chemical substance/The level of expressed mRNA in the absence of chemical substance (yeast gene YDR085C): 0.4 | The level of expressed mRNA in the presence of chemical substance/The level of expressed mRNA in the absence of chemical substance (yeast gene YDR099W): 2.4 | The level of expressed mRNA in the presence of chemical substance/The level of expressed mRNA in the absence of chemical substance (yeast gene YDR104C): 2.8 | The level of expressed mRNA in the presence of chemical substance/The level of expressed mRNA in the absence of chemical substance (yeast gene YDR115W): 1.1 | The level of expressed mRNA in the presence of chemical substance/The level of expressed mRNA in the absence of chemical substance (yeast gene YDR125C): 0.7 | The level of expressed mRNA in the presence of chemical substance/The level of expressed mRNA in the absence of chemical substance (yeast gene YDR188W): 2.9 | The level of expressed mRNA in the presence of chemical substance/The level of expressed mRNA in the absence of chemical substance (yeast gene YDR257C): 3.0 | The level of expressed mRNA in the presence of chemical substance/The level of expressed mRNA in the absence of chemical substance (yeast gene YDR259C): 1.0 | The level of expressed mRNA in the presence of chemical substance/The level of expressed mRNA in the absence of chemical substance (yeast gene YDR315C): 1.1 | The level of expressed mRNA in the presence of chemical substance/The level of expressed mRNA in the absence of chemical substance (yeast gene YDR358W): 2.9 | The level of expressed mRNA in the presence of chemical substance/The level of expressed mRNA in the absence of chemical substance (yeast gene YDR388W): 1.4 | The level of expressed mRNA in the presence of chemical substance/The level of expressed mRNA in the absence of chemical substance (yeast gene YDR427W): 2.3 | The level of expressed mRNA in the presence of chemical substance/The level of expressed mRNA in the absence of chemical substance (yeast gene YDR432W): 0.7 | The level of expressed mRNA in the presence of chemical substance/The level of expressed mRNA in the absence of chemical substance (yeast gene YDR481C): 1.9 | The level of expressed mRNA in the presence of chemical substance/The level of expressed mRNA in the absence of chemical substance (yeast gene YDR506C): 1.9 | The level of expressed mRNA in the presence of chemical substance/The level of expressed mRNA in the absence of chemical substance (yeast gene YDR510W): 2.7 | The level of expressed mRNA in the presence of chemical substance/The level of expressed mRNA in the absence of chemical substance (yeast gene YDR515W): 5.8 | The level of expressed mRNA in the presence of chemical substance/The level of expressed mRNA in the absence of chemical substance (yeast gene YEL042W): 0.2 | The level of expressed mRNA in the presence of chemical substance/The level of expressed mRNA in the absence of chemical substance (yeast gene YEL052W): 3.0 | The level of expressed mRNA in the presence of chemical substance/The level of expressed mRNA in the absence of chemical substance (yeast gene YEL066W): 1.3
